This note sets out measurements from paper PMC11470957, “Principles of paralog-specific targeted protein degradation engaging the C-degron E3 KLHDC2” (Nature Communications, 2024).

One may read the IC50 as the concentration that inhibits the measured activity by half. Read a high IC50 as weaker potency in that assay. Usually Kd stands for the equilibrium constant for the complex coming apart. A high value points to a looser complex.

Series [1] addresses neddylated CRL2^KLHDC2 (Homo sapiens, UniProt Q9Y2U9, G405K/S406K). Briefly: biochemical.
Series [2] can be described thus: Solubility as observed in the ITC sample cell. As to conditions: at 40 μM in the ITC sample cell.
Series [3] has as its target T1, KLHDC2^SBD (Homo sapiens, UniProt Q9Y2U9).
T1 sequence (Q9Y2U9 15-361): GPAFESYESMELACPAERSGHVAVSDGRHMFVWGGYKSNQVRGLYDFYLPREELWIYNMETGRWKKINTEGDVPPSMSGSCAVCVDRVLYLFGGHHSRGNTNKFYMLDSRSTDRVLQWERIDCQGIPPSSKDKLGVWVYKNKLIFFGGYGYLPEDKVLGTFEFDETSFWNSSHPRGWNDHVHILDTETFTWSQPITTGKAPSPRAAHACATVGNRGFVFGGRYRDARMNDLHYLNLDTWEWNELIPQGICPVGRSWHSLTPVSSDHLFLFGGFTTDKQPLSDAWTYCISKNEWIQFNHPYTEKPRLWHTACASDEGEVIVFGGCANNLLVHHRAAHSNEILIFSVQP
Briefly: ITC, binary binding of small molecule to KLHDC2^SBD. On the technique in general: ITC needs no label: the signal is the heat of the interaction.

In series [4] the target is KLHDC2^SBD / BRD3^BD2 (Homo sapiens, UniProt Q15059+Q9Y2U9). The experiment in a line: ITC, ternary complex KLHDC2^SBD with PROTAC-BRD3^BD2.
The subject of series [5] is BD2 domain from BRD2, BRD3, or BRD4 / neddylated CRL2^KLHDC2. Briefly: Pulse-chase PROTAC-dependent ubiquitylation of BRD BD2 domains by neddylated CRL2^KLHDC2. As to conditions: neddylated CRL2^KLHDC2 not subject to autoinhibition; Fig 3e.
Series [6] has as its target neddylated CRL2^KLHDC2 / BRD3^BD2 (Homo sapiens, UniProt Q15059+Q9Y2U9, Q9Y2U9:G405K/Q9Y2U9:S406K). The experiment in a line: biochemical.
Where [7] appears, read: cell: ligand, syringe: KLHDC2^SBD.
Setting [8] is: cell: PROTAC-BRD3^BD2, syringe: KLHDC2^SBD.

“And” between values parts separate entries of the source, which are not always exact repeats. Equal values may be shown once.

KLHDC2^SBD / BRD3^BD2, sequence (Q15059 306-416, one chain of several): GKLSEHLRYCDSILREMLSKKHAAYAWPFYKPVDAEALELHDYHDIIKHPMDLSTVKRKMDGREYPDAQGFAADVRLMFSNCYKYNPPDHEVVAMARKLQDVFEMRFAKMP

The compound `Cc1sc2c(c1C)C(c1ccc(Cl)cc1)=N[C@@H](CC(=O)N1CCN(CCOc3ccc4ccc(-c5nc(CC(=O)NCC(=O)O)cs5)cc4c3)CC1)c1nnc(C)n1-2` [SJ46423] displayed a concentration for half-maximal inhibition (IC50) in series [1] of 15300 nM. The solubility entry in series [2] is “solubility issues”. Moreover, the equilibrium dissociation constant (Kd) in series [3] (ITC Kd, cell: ligand, syringe: KLHDC2^SBD) is 740 nM and 737 nM. Also, the Kd in series [3] (Kd, Rep1/Rep2, ITC source data Fig4a, syringe KLHDC2, cell PROTAC alone) was 690 nM and 789 nM. Also, in series [3] (setting [7]), the “ITC -TΔS” value is listed as -5.26 +/- 0.22 kcal/mol-1; the “ITC stoichiometry of binding N” value is 0.4 and ~ 0.5; the “ITC ΔG” value is on record as -8.61 +/- 0.04 kcal/mol-1; the “ITC ΔH” value is given as -3.35 +/- 0.11 kcal/mol-1. For the same compound, the “cooperativity α” value in series [4] (BRD3^BD2, KLHDC2^SBD) is recorded as 2.9. In addition, in series [4] (setting [8]), the “ITC -TΔS (ternary)” value was -5.26 +/- 0.18 kcal/mol-1; the “ITC N (ternary)” value was 0.4 and ~ 0.5; the “ITC ΔG (ternary)” value was -9.33 +/- 0.05 kcal/mol-1. In addition, the “polyubiquitylation of the BD2 domain from BRD2, BRD3, or BRD4” value in series [5] was “able to promote polyubiquitylation”. Further, in series [6], half-maximal inhibition (IC50) required 2200 nM.
